In patent publication US20250188078A1, “SMALL MOLECULE INHIBITORS OF THE CRL4 UBIQUITIN LIGASE” (Cornell University, priority 2022, published 2025):

Legend:
[1] = Dynamic light scattering (DLS) solubility assay; type: physicochemical; conditions: normalized intensity ratio of 25 μM compound vs DMSO, in PBS
Description: Dynamic light scattering (DLS) (see Table 1, column 3) is a tool for studying the diffusion behavior of macromolecules in solution. To profile compound solubility, DLS assay was developed for measuring aggregation of small molecule compounds. Compound stock solution was prepared in DMSO. Dilution series were made for each compound in DMSO to ensure a final 1× assay concentration range of 200 μM to 0.78 μM. For example, if the final DMSO concentration was 1%, compounds were prepared at 100× concentrations ranging from […] to 78 μM. Dilute compounds in PBS solution to final concentration. Place 60 μl/well in 96 well plates and 3 replicates for each sample. Data were collected using a DynaPro Plate Reader III (WYATT Technologies, Inc., USA). The instrument was adjusted to measure the optimal light scattering intensity according to the manufacturer's instructions. […] The ratio over 2 means (−) insoluble. The ratio below 2 means (+) soluble and around 2 means (+/−).

[2] = target: CUL4A-DDB1-BPB interaction (Homo sapiens (Human), UniProt Q16531); assay: AlphaLISA in vitro binding assay, CUL4A and DDB1-BPB binding; conditions: inhibition of CUL4A and DDB1-BPB binding
Outline: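 Compound disruption of CUL4A binding to DDB1-BPB measured by AlphaLISA/AlphaScreen bead proximity in 384-well format. IC50 from nonlinear log(inhibitor)-vs-response curve fit.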

[3] = system: UV-induced CUL4-dependent DDB2 degradation in MEF-F-DDB2 cells; assay: Cell-based assay for inhibition of UV-induced CUL4-dependent DDB2 degradation; design: key: (+) means that the normalized DDB2/α-tubulin ratio is higher in the compound treated sample than DMSO treated sample; (−) means that no change happens between compound treated sample with control sample; conditions: DDB2/α-tubulin by Western blot
Outline: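 MEF cells expressing Flag-DDB2, in serum-free medium, treated with DMSO or compound, UV-irradiated (254 nm, 0.2 W/m^2), then harvested. Flag-DDB2 measured by western blot against α-tubulin; (+) denotes normalized DDB2/α-tubulin above DMSO, (−) no change.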

[4] = system: CUL4A^high MDA-MB-468 breast cancer cells; assay: Cell killing in CUL4-high MDA-MB-468 cells (CellTiter Glo); type: cell-based; conditions: Homo sapiens, 192 h; MDA-MB-468 cells, 8 days treatment; read-out: EC50 CUL4-High Cells (cell killing)
Outline: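 Cells seeded, treated after 24 h with DMSO or compound (0 to 20 μM). Medium and compound replaced every 48 h over 8 days. Viability measured by CellTiter-Glo luminescence; EC50 (50% killing) from log(inhibitor) vs response nonlinear fit.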

[5] = system: CUL4A^low T47D breast cancer cells; assay: Cell killing in CUL4-low T47D cells (CellTiter Glo); type: cell-based; conditions: Homo sapiens, 192 h; T47D cells, 8 days treatment; read-out: EC50 CUL4-Low Cells (cell killing)
Description: EC50 indicates compound concentration can cause 50% cell killing in CUL4° ^w T47D cells (see Table 1, column 7). CUL4A^low T47D breast cancer cells were seeded in 96 well plate. […] Change fresh medium and compounds every 48 hours. After 8 days treatment, cell viability was examined by using CellTiter Glo kit (Promega #7570) following the manufacturer's guidelines (https://www.promega.com/-/media/files/resources/protocols/technical-bulletins/0/celltiter-glo-luminescent-cell-viability-assay-protocol.pdf?rev=0d95c232094b41daa06d0c110d1d916f&sc_lang=en, hereby incorporated by reference in its entirety for all purposes). EC50 concentration was calculated by Prism 8 XY analysis nonlinear regression (curve fit-Log(inhibitor) vs response). EC50 indicates cell killing potential in CUL4 low T47D cell line and the EC50 difference between CUL4^high and CUL4^low cells indicates the small molecule cause specific cell killing.
CUL4A^high MDA-MB-468, CUL4^low (T47D), and MCF7 breast cancer cells were seeded in 96 well plates separately. […] Replace with fresh medium and compounds every 48 hours. After 8 days treatment, cell viability was examined by CellTiter Glo kit (Promega #7570). First, transfer the appropriate volume (10 ml for Cat. #G7570) of CellTiter-Glo® Buffer into the amber bottle containing CellTiter-Glo® Substrate to reconstitute the lyophilized enzyme/substrate mixture. This forms the CellTiter-Glo® Reagent. Second, add CellTiter-Glo® Reagent in an equal volume (100 μl per well for 96-well plates) to all wells. Mix contents for 2 minutes on an orbital shaker to induce cell lysis. Incubate at room temperature for 15 minutes to stabilize luminescent signal. Then record luminescence. EC50 concentration was calculated by Prism 8 XY analysis nonlinear regression (curve fit-Log(inhibitor) vs response).

DDB1-BPB = DDB1-BPB (Homo sapiens (Human), UniProt Q16531); assay: Microscale Thermophoresis (MST) binding to DDB1-BPB; conditions: labeled DDB1-BPB, 25° C.
Description: Kd represents dissociation constant, which measures the affinity of small molecule binding to the scaffold DDB1-BPB by Microscale Thermophoresis (MST) (see Table 1, column 9). MST experiments were performed on a Monolith NT 115 system (Nano Temper Technologies, Munich, Germany) using 100% LED and 60% IR-laser power (https://physiology.case.edu/media/eq manuals/eq_manual_nano-temper_mst_starting_guide.pdf, hereby incorporated by reference in its entirety for all purposes). The labeling of DDB1-BPB ([…]) was performed in labeling buffer with NHS-Red reactive dye (30 μM) (Nanotemper), which reacts efficiently with the primary amines of the proteins to form a stable dye protein conjugates. The labeling reaction was carried out at RT. A 16-point serial dilution (1:1) was prepared for compound at the final concentration ranged from 200 µM to 3 nM in PBS containing 0.05% tween. The samples were filled into Premium capillaries and measurements were conducted at 25° C. An equation implemented by the software MO-S002 MO Affinity Analysis, provided by the manufacturer, was used for fitting normalized fluorescence values at different concentrations of ligands.

Sequence of CUL4A-DDB1-BPB interaction (Q16531 403-706): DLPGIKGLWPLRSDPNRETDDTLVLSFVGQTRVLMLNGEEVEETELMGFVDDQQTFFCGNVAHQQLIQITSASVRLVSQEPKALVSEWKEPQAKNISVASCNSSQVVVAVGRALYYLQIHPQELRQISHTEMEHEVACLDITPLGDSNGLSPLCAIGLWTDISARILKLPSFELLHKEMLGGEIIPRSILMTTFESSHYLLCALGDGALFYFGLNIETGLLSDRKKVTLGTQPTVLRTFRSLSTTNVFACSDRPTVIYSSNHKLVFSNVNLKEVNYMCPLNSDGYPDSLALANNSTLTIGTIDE
Sequence of DDB1-BPB (Q16531 403-706): as above

Solubility (DLS Assay) [1]	IC50 [2] [µM]	AlphaLisa IC50 [2]	Kd (MST) (DDB1-BPB)	Kd (DDB1-BPB) [µM]	SMILES	Degradation Inhibition (inhibition of UV-induced DDB2 degradation) [3]	EC50 [4] [µM]	EC50 [5] [µM]
-(insoluble)	0.17				CN(c1ccc(-c2nc(C(=O)O)cc3c2[nH]c2ccc(F)c(F)c23)cc1)S(=O)(=O)c1ccccc1 [PA1-1, 1-[4-[benzenesulfonyl(methyl)amino]phenyl]-5,6-difluoro-9H-pyrido[3,4-b]indole-3-carboxylic acid]	−	15.2	> 100
	8.88				CN(c1ccc(-c2nc(C(=O)O)cc3c2[nH]c2c(F)cccc23)cc1)S(=O)(=O)c1ccccc1 [PA1-4, 8-fluoro-1-(4-(N-methylphenylsulfonamido)phenyl)-9H-pyrido[3,4-b]indole-3-carboxylic acid]	−	6.9	10.9
-(insoluble)	0.3				Cc1ccc(S(=O)(=O)N(C)c2ccc(-c3nc(C(=O)O)cc4c3[nH]c3ccc(F)cc34)cc2)cc1 [PA2-1, 6-fluoro-1-[4-[methyl-(p-tolylsulfonyl)amino]phenyl]-9H-pyrido[3,4-b]indole-3-carboxylic acid]	−	9.32	> 100
-(insoluble)	0.89				COc1ccc(S(=O)(=O)N(C)c2ccc(-c3nc(C(=O)O)cc4c3[nH]c3ccc(F)cc34)cc2)cc1 [PA2-2, 6-fluoro-1-[4-[(4-methoxyphenyl)-sulfonyl-methyl-amino]phenyl]-9H-pyrido[3,4-b]indole-3-carboxylic acid]	−	8.45	> 100
-(insoluble)	0.48				CN(c1ccc(-c2nc(C(=O)O)cc3c2[nH]c2ccc(F)cc23)cc1)S(=O)(=O)c1ccc(F)cc1 [PA2-3, 6-fluoro-1-[4-[(4-fluorophenyl)sulfonyl-methyl-amino]phenyl]-9H-pyrido[3,4-b]indole-3-carboxylic acid]	−	13.3	> 100
	0.75				CN(c1ccc(-c2nc(C(=O)O)cc3c2[nH]c2ccc(F)cc23)cc1)S(=O)(=O)c1ccc(Br)cc1 [PA2-4, 1-[4-[(4-bromophenyl)sulfonyl-methyl-amino]phenyl]-6-fluoro-9H-pyrido[3,4-b]indole-3-carboxylic acid]	+	4.49	> 100
	2.09 ± 1.26				COC(=O)c1ccc(-c2nc(C(=O)O)cc3c2[nH]c2ccccc23)cc1 [PA20, 1-(4-methoxycarbonylphenyl)-9H-pyrido[3,4-b]indole-3-carboxylic acid]	+	91.3	> 100
-(insoluble)	12.9 ± 7.44				O=[N+]([O-])c1ccc(-c2nc(-c3nn[nH]n3)cc3c2[nH]c2ccccc23)cc1 [PA40, 1-(4-nitrophenyl)-3-(1H-tetrazol-5-yl)-9H-pyrido[3,4-b]indole]		23.5	54.7
	1.26 ± 0.45				CS(=O)(=O)Nc1ccc(-c2nc(C(=O)O)cc3c2[nH]c2ccccc23)cc1 [PA48, 1-[4-(methanesulfonamido)phenyl]-9H-pyrido[3,4-b]indole-3-carboxylic acid]	+	84.1	> 100
-(insoluble)		Neg			COC(=O)c1cc2c([nH]c3ccccc32)c(-c2ccc(S(C)(=O)=O)cc2)n1 [PA54]	+	> 100	> 100
	11.1 ± 2.71				CS(=O)(=O)NC(=O)c1cc2c([nH]c3ccccc32)c(-c2ccc(S(C)(=O)=O)cc2)n1 [PA55]	−	30.7	53.8
-(insoluble)		Neg	Insoluble		COC(=O)c1cc2c([nH]c3ccccc32)c(-c2ccc(NCc3ccc(F)cc3)cc2)n1 [PA57, methyl 1-[4-[(4-fluorophenyl)methylamino]phenyl]-9H-pyrido[3,4-b]indole-3-carboxylate]		1.08	1.6
		Neg	Insoluble		COC(=O)c1cc2c([nH]c3ccccc32)c(-c2ccc(SCc3ccccc3)cc2)n1 [PA64, methyl 1-(4-benzylsulfanylphenyl)-9H-pyrido[3,4-b]indole-3-carboxylate]		22.8	> 20
-(insoluble)		Neg			COC(=O)c1cc2c([nH]c3ccccc32)c(-c2ccc(S(=O)(=O)Cc3ccccc3)cc2)n1 [PA65, methyl 1-(4-benzylsulfonylphenyl)-9H-pyrido[3,4-b]indole-3-carboxylate]		18.1	44.3
	5.99 ± 0.43			59.6	O=C(O)c1cc2c([nH]c3ccccc32)c(-c2ccc(SCc3ccccc3)cc2)n1 [PA66, 1-(4-benzylsulfanylphenyl)-9H-pyrido[3,4-b]indole-3-carboxylic acid]		4.41	4
-(insoluble)		Neg			COC(=O)c1cc2c([nH]c3ccc(F)cc32)c(-c2ccc(N(C)S(=O)(=O)c3ccccc3)cc2)n1 [PA93-1]	−	21.8	> 100
+/−	7.73			443	Cc1ccc2c(c1)[nH]c1c(-c3ccc(N(C)S(=O)(=O)c4ccccc4)cc3)nc(C(=O)O)cc12 [PA106, 1-[4-[benzenesulfonyl(methyl)amino]phenyl]-7-methyl-9H-pyrido[3,4-b]indole-3-carboxylic acid]		7.98	> 100
	2.5			25.4	CN(c1ccc(-c2nc(C(=O)O)cc3c2[nH]c2cc(Br)ccc23)cc1)S(=O)(=O)c1ccccc1 [PA117, 1-[4-[benzenesulfonyl(methyl)amino]phenyl]-7-bromo-9H-pyrido[3,4-b]indole-3-carboxylic acid]		3.42	5.48
